Results from PubChem BioAssay (NCI).
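GI50 marks 50% less growth. Definition used: TGI = concentration required for complete inhibition of growth.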

How the values were obtained:
Assay in all cases: DTP human tumour cell line panel, 384-well format
PC-3 prostate = test system: PC-3 prostate
DU-145 prostate = test system: DU-145 prostate
CAKI-1 renal = test system: CAKI-1 renal
MCF7 breast = test system: MCF7 breast
NCI-H522 lung = test system: NCI-H522 lung
MALME-3M melanoma = test system: MALME-3M melanoma
MDA-MB-468 breast = test system: MDA-MB-468 breast
TK-10 renal = test system: TK-10 renal
HCC-2998 colon = test system: HCC-2998 colon
SNB-75 CNS = test system: SNB-75 CNS
NCI-H322M lung = test system: NCI-H322M lung
MDA-MB-231 breast = test system: MDA-MB-231 breast
RPMI-8226 leukemia = test system: RPMI-8226 leukemia

## CC(C)n1c(=O)n(C)c2cnc3cc(F)c(-c4ccc(OCCCN5CCCCC5)nc4)cc3c21
PC-3 prostate
  GI50: 19.6 µM
  TGI: > 100 µM
DU-145 prostate
  GI50: > 89.7 µM
  TGI: > 100 µM
CAKI-1 renal
  GI50: 16.7 µM
  TGI: > 95.8 µM
MCF7 breast
  GI50: > 56.4 µM
  TGI: > 100 µM
NCI-H522 lung
  GI50: 20.8 µM
  TGI: > 82 µM
MALME-3M melanoma
  GI50: > 100 µM
  TGI: > 100 µM
MDA-MB-468 breast
  GI50: 24.8 µM
  TGI: > 100 µM
TK-10 renal
  GI50: 51.7 µM
  TGI: > 100 µM
HCC-2998 colon
  GI50: 30.5 µM
  TGI: > 80.3 µM
SNB-75 CNS
  GI50: 20.6 µM
  TGI: > 100 µM
NCI-H322M lung
  GI50: > 100 µM
  TGI: > 100 µM
MDA-MB-231 breast
  GI50: 36.3 µM
  TGI: > 100 µM
RPMI-8226 leukemia
  GI50: 6.13 µM
  TGI: 42.1 µM

## CS(=O)(=O)c1ccc(Oc2cc(F)cc(C#N)c2)c2c1[C@H](O)C(F)(F)C2
PC-3 prostate
  GI50: > 100 µM
  TGI: > 100 µM
DU-145 prostate
  GI50: > 100 µM
  TGI: > 100 µM
CAKI-1 renal
  GI50: > 78.9 µM
  TGI: > 100 µM
MCF7 breast
  GI50: > 100 µM
  TGI: > 100 µM
NCI-H522 lung
  GI50: > 100 µM
  TGI: > 100 µM
MALME-3M melanoma
  GI50: > 100 µM
  TGI: > 100 µM
MDA-MB-468 breast
  GI50: > 100 µM
  TGI: > 100 µM
TK-10 renal
  GI50: > 100 µM
  TGI: > 100 µM
HCC-2998 colon
  GI50: > 100 µM
  TGI: > 100 µM
SNB-75 CNS
  GI50: > 100 µM
  TGI: > 100 µM
NCI-H322M lung
  GI50: > 100 µM
  TGI: > 100 µM
MDA-MB-231 breast
  GI50: > 100 µM
  TGI: > 100 µM
RPMI-8226 leukemia
  GI50: > 100 µM
  TGI: > 100 µM
